In patent US5527793A, “Antibiotic carbapenem compounds” (Zeneca Limited, priority 1992, dated 1996):
Where a name gives a salt, the structure may show the parent alone.

Assays:
Assay in all cases: MIC by agar-dilution technique, Diagnostic Sensitivity Test
Assay type in all cases: cell-based
[1] = tested on: S. aureus Oxford; conditions: Staphylococcus aureus, inoculum 10^4 CFU/spot, read-out: minimum inhibitory concentration (MIC)
Excerpt: (§1) The following results were obtained for representative compounds on a standard in vitro test system using Diagnostic Sensitivity Test. The antibacterial activity is described in terms of the minimum inhibitory concentration (MIC) determined by the agar-dilution technique with an inoculum size of 10^4 CFU/spot.

[2] = tested on: E. coli DCO; conditions: Escherichia coli, inoculum 10^4 CFU/spot, read-out: minimum inhibitory concentration (MIC)
Excerpt: as §1

[3] = tested on: Enterobacter cloacae P99-; conditions: P99, read-out: minimum inhibitory concentration (MIC)
Excerpt: as §1

[4] = tested on: P. morganii I + 001; conditions: Morganella morganii, inoculum 10^4 CFU/spot, read-out: minimum inhibitory concentration (MIC)
Excerpt: as §1

[5] = tested on: B. fragilis AMP S; conditions: Bacteroides fragilis, inoculum 10^4 CFU/spot, read-out: minimum inhibitory concentration (MIC)
Excerpt: as §1

C[C@@H](O)[C@H]1C(=O)N2C(C(=O)O)=C(S[C@@H]3CN[C@H](C(=O)Nc4nc(C(=O)O)cs4)C3)[C@H](C)[C@H]12 [Example 2, (1R,5S,6S,8R,2'S,4'S)-2-(2-(4-Carboxy-2-thiazolylcarbamoyl)pyrrolidin-4-ylthio)-6-(1-hydroxyethyl)71-methylcarbapenem-3-carboxylic acid, disodium salt] gave an MIC [1] of 0.25 µg/mL, an MIC [2] of 0.03 µg/mL and an MIC [3] of 0.03 µg/mL. For the same compound, the MIC [4] was 0.03 µg/mL and the MIC [5] was 0.5 µg/mL.
